Experimental findings from ChEMBL document CHEMBL1201862, “PubChem BioAssay data set” (2004) are described below.

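Where inhibition never reached the appropriate level, the endpoint shown equals the highest concentration tested. Otherwise, values were interpolated linearly from a five-concentration, 48-hour dose response in 96-well plates. GI50 marks 50% less growth.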 Active and inactive are the calls of the source. Cut-off read from the data, not from the text of the source: active = GI50 up to about 1.1 µM and inactive = higher.

Test systems include NCI/ADR-RES; LOX IMVI; CAKI-1; A498; MOLT-4; 786-0; KM12; SR; K562; UO-31; M14; TK-10; SF-539; HOP-92; NCI-H23; HCT-15; HT-29; CCRF-CEM; SN12C; RXF 393.
Holding throughout (experiment): growth of human tumour cells (NCI), 48 h

`COc1ccc(Nc2nc(NNC(=O)Cc3ccccc3)nc(NNC(=O)c3ccncc3)n2)cc1`: the GI50 with NCI/ADR-RES, with LOX IMVI, in the experiment on CAKI-1, with A498, in the experiment on MOLT-4 and in the experiment with 786-0 was > 10 µM (inactive) in each case. For the same compound, the GI50 in the experiment with KM12, in the experiment on SR, in the experiment on K562, with UO-31, in the experiment on M14 and with TK-10 was > 10 µM (inactive) each time. The GI50 in the experiment with SF-539 is > 10 µM (inactive); with HOP-92, > 10 µM (inactive); in the experiment with NCI-H23, > 10 µM (inactive); in the experiment with HCT-15 it was over 10 µM; in the experiment with HT-29 it was > 10 µM (inactive); in the experiment with CCRF-CEM it was > 10 µM (inactive). Besides, in the experiment with SN12C, the GI50 is > 10 µM (inactive).

As for `N#Cc1nc(-c2cccc(-c3nc(C#N)c(N)o3)n2)oc1N`, the GI50 in the experiment with NCI/ADR-RES, with LOX IMVI, in the experiment with CAKI-1, in the experiment on A498, in the experiment with MOLT-4 and in the experiment on 786-0 was > 100 µM (inactive) throughout. The GI50 with KM12, in the experiment with SR, in the experiment on K562, in the experiment with UO-31, in the experiment on M14 and in the experiment on TK-10 was > 100 µM (inactive) in each case. In addition, the GI50 is > 100 µM (inactive) in the experiment with SF-539; > 100 µM (inactive) with HOP-92; > 100 µM (inactive) with NCI-H23; over 100 µM in the experiment on HCT-15; > 100 µM (inactive) in the experiment with HT-29; 21.2 µM (inactive) in the experiment with CCRF-CEM. Moreover, the GI50 with SN12C is > 100 µM (inactive).

Turning to `CC(=O)O[C@H]1CC[C@@]2(C)C(=CC[C@@H]3[C@@H]2CC[C@]2(C)c4c(cc(C#N)c(=N)n4C(C)=O)C[C@@H]32)C1`, the GI50 is 17.2 µM (inactive) in the experiment with NCI/ADR-RES; 16.7 µM (inactive) in the experiment with LOX IMVI; 30.8 µM (inactive) in the experiment with CAKI-1; 30.5 µM (inactive) with A498; 12.2 µM (inactive) in the experiment with MOLT-4; 20.5 µM (inactive) in the experiment on 786-0. The GI50 in the experiment on KM12 was 17.9 µM (inactive); in the experiment with SR, 23.8 µM (inactive); in the experiment with K562, 4.06 µM (inactive); with UO-31, 22 µM (inactive); with M14, 16.9 µM (inactive); with TK-10 it was 25.4 µM (inactive). In addition, the GI50 with HOP-92 is 14.7 µM (inactive); in the experiment with RXF 393, 22.6 µM (inactive); in the experiment with NCI-H23 it was 15.3 µM (inactive); in the experiment on HCT-15 it was 15.2 µM; in the experiment with HT-29 it was 17.9 µM (inactive); in the experiment with CCRF-CEM, 3.6 µM (inactive). Further, in the experiment on SN12C, the GI50 was 17.4 µM (inactive).

`O=C(O)[C@@]1(Cc2ccc(O)cc2)C[C@@H]2Cc3ccccc3N2N1`: the GI50 with NCI/ADR-RES, in the experiment with LOX IMVI, in the experiment with CAKI-1, with A498, in the experiment with MOLT-4 and in the experiment on 786-0 was > 100 µM (inactive) each time. The GI50 in the experiment with KM12, with SR, in the experiment with UO-31, in the experiment on M14, in the experiment on TK-10 and in the experiment on SF-539 was > 100 µM (inactive) throughout. The GI50 in the experiment with HOP-92 is > 100 µM (inactive); with NCI-H23, > 100 µM (inactive); in the experiment with HCT-15, over 100 µM; in the experiment with HT-29 it was > 100 µM (inactive); with CCRF-CEM, > 100 µM (inactive); in the experiment with SN12C it was > 100 µM (inactive).

`COC(=O)C1CCC(=S)N1C(=O)OCc1ccccc1` (stereo not drawn): the GI50 in the experiment on NCI/ADR-RES, in the experiment on CAKI-1, with A498, with MOLT-4, in the experiment with 786-0 and with KM12 was > 100 µM (inactive) throughout. The GI50 was > 100 µM (inactive) in the experiment with SR; > 100 µM (inactive) in the experiment on K562; 95.7 µM (inactive) in the experiment on UO-31; > 100 µM (inactive) in the experiment on M14; > 100 µM (inactive) in the experiment with TK-10; > 100 µM (inactive) with HOP-92. Further, the GI50 was 28.4 µM (inactive) in the experiment on RXF 393; > 100 µM (inactive) with NCI-H23; 92.7 µM in the experiment with HCT-15; > 100 µM (inactive) in the experiment with HT-29; 3.61 µM (inactive) with CCRF-CEM.

As for `Cc1cccc2c(=O)c3cccc([C@H](C)C(=O)O)c3oc12`, the GI50 in the experiment on NCI/ADR-RES, in the experiment with LOX IMVI, in the experiment on CAKI-1, with A498, in the experiment with MOLT-4 and in the experiment with 786-0 was > 100 µM (inactive) each time. The GI50 in the experiment on KM12, in the experiment with SR, with K562, in the experiment with UO-31, in the experiment with M14 and with TK-10 was > 100 µM (inactive) each time. The GI50 with SF-539 is > 100 µM (inactive); with HOP-92 it was > 100 µM (inactive); in the experiment with NCI-H23, > 100 µM (inactive); with HCT-15, over 100 µM; in the experiment with HT-29 it was > 100 µM (inactive); in the experiment with CCRF-CEM, > 100 µM (inactive). Further, the GI50 in the experiment on SN12C is > 100 µM (inactive).

`O=[N+]([O-])/C(Cl)=C(\NCCN/C(C(Cl)=C(Cl)Cl)=C(/Cl)[N+](=O)[O-])C(Cl)=C(Cl)Cl`: the GI50 in the experiment on NCI/ADR-RES was 89.7 µM (inactive); with LOX IMVI, 18.8 µM (inactive); in the experiment with CAKI-1, > 100 µM (inactive); with A498, 48.1 µM (inactive); in the experiment on MOLT-4 it was 22 µM (inactive); in the experiment on 786-0, 31.6 µM (inactive). In addition, the GI50 in the experiment on KM12 was 31.8 µM (inactive); in the experiment with SR, 17.1 µM (inactive); in the experiment with K562, 27.8 µM (inactive); in the experiment with UO-31 it was > 100 µM (inactive); in the experiment on M14, 61.1 µM (inactive); with TK-10, 71.4 µM (inactive). Further, the GI50 in the experiment with SF-539 was > 100 µM (inactive); with HOP-92, 17.9 µM (inactive); in the experiment on NCI-H23, 28.7 µM (inactive); in the experiment with HCT-15, 36.6 µM; in the experiment on CCRF-CEM, 27 µM (inactive); in the experiment with SN12C, 70.5 µM (inactive).

For `COc1cc(C2S/C(=C/c3ccccc3)C(=O)N2c2ccccn2)cc(OC)c1OC` (stereo not drawn), the GI50 in the experiment on NCI/ADR-RES was 19.5 µM (inactive); in the experiment on LOX IMVI, 9.59 µM (inactive); with CAKI-1 it was 20.1 µM (inactive); in the experiment with A498 it was 13.2 µM (inactive); in the experiment with MOLT-4, 9.55 µM (inactive); in the experiment on 786-0, 14.3 µM (inactive). Moreover, the GI50 in the experiment on KM12 was 12.9 µM (inactive); in the experiment on SR it was 3.02 µM (inactive); in the experiment on K562, 11.9 µM (inactive); in the experiment with UO-31, 13.5 µM (inactive); in the experiment on M14, 15.1 µM (inactive); in the experiment with TK-10 it was 45.7 µM (inactive). Also, the GI50 with HOP-92 was 8.3 µM (inactive); in the experiment with RXF 393, 10 µM (inactive); in the experiment with NCI-H23 it was 13.7 µM (inactive); in the experiment with HCT-15 it was 12.8 µM; in the experiment with HT-29, 11 µM (inactive); in the experiment on CCRF-CEM, 3.57 µM (inactive). Besides, the GI50 with SN12C was 15.3 µM (inactive).
